Results taken from patent publication US8106046B2, “Cyclopentathiophene modulators of the glucocorticoid receptor, AP-1, and/or NF-κB activity and use thereof” (Bristol-Myers Squibb Company, priority 2008, dated 2012).
Where two headings read alike, the source gives them in different places.

Assays:
[1] = target: T1, human glucocorticoid receptor (Homo sapiens, UniProt P04150); experiment: Glucocorticoid Receptor Binding Assay (I), fluorescence polarization competitor assay; conditions: purified human recombinant full-length GR, Fluormone GS Red
T1 construct: purified human recombinant full-length glucocorticoid receptor (2 nM); purchased Invitrogen Part #2893
T1 sequence (P04150 1-777): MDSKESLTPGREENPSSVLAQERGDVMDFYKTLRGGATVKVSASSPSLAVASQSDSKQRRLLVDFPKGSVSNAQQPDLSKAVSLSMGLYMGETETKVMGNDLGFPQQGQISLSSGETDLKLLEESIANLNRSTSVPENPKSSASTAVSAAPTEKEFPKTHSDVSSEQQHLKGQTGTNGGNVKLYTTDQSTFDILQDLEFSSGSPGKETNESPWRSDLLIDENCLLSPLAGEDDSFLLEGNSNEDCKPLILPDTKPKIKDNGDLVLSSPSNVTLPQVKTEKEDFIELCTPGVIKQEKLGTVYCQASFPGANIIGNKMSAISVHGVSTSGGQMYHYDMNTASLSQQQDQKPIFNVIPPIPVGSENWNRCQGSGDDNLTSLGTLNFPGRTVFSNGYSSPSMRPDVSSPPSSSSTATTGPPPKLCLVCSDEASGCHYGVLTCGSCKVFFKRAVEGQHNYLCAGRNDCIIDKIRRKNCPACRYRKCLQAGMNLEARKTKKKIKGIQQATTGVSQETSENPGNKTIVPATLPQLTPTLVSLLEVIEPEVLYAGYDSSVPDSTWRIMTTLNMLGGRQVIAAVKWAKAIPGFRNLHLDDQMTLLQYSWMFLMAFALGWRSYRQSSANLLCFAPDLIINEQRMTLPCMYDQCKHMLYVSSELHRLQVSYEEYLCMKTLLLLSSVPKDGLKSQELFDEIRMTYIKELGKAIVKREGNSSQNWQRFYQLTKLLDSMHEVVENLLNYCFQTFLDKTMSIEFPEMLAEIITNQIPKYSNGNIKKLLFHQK
Procedure: In order to assess the affinity of test compounds for the human glucocorticoid receptor, a commercially available kit was used (Glucocorticoid Receptor Competitor Assay Kit, Invitrogen Part #2893). Briefly, purified human recombinant full-length glucocorticoid receptor (2 nM) was mixed with fluorescently labeled glucocorticoid (1 nM Fluormone GS Red) in the presence or absence of test compound. After two hour incubation at room temperature in the dark, the fluorescence polarization (FP) of the samples was measured. The FP of a mixture of receptor, fluorescent probe (i.e., Fluormone GS Red) and 5 μM dexamethasone represented background fluorescence or 100% inhibition, whereas, the FP of the mixture without dexamethasone (but in the presence of vehicle) was taken to be 100% binding. […] Test compounds were analyzed in the concentration range from 8.5E-05 μM to 5 μM.

[2] = tested on: AP-1 induced transcriptional activity; experiment: Cellular Transrepressional Assay (AP-1 luciferase reporter in A549 cells, PMA activated); format: cell-based; conditions: 10 ng/ml PMA, 7 hours; for AP-1 Max % inh (Cellular Transrepression Assay): maximum inhibition; for EC50: read-out: AP-1 EC50, nM (Cellular Transrepression Assay)
Procedure: To measure the ability of test molecules to inhibit AP-1 induced transcriptional activity we utilized an A549 cell which was stably transfected with a plasmid containing 7×AP-1 DNA binding sites (pAP-1-Luc plasmid, Stratagene Co. La Jolla, Calif.) followed by the gene for luciferase. Cells were activated with 10 ng/ml of phorbol myristic acid (PMA) plus or minus test molecules for 7 hours. After 7 hours a luciferase reagent was added to measure luciferase enzymatic activity in the cell. After a 10 minute incubation of luciferase reagent with cells, luminescence was measured in a TopCount luminescence counter. Repression of AP-1 activity was calculated as the percentage decrease in the signal induced by PMA alone. Test molecules were analyzed in the concentration range from 0.1 nM to 40 μM. EC50s were determined by using standard curve fitting methods such as Excel fit (Microsoft Co.). An EC50 is the test molecule concentration at which there is a 50% repression of the maximal inhibition of transcription, i.e., a 50% reduction of AP-1 activity.

SMILES	Ki [1]	AP-1 Max % inh (Cellular Transrepression Assay) [2]	EC50 ([2]; Homo sapiens)	EC50 [2]
CC1(C(=O)Nc2nncs2)Cc2sc(Br)cc2C1c1ccccc1 (racemic) [Example 1, (+/−)-2-Bromo-5-methyl-4-phenyl-N-(1,3,4-thiadiazol-2-yl)-5,6-dihydro-4H-cyclopenta[b]thiophene-5-carboxamide]	5.3 nM			
CCN(C)C(=O)c1ccc(-c2cc3c(s2)C[C@](C)(C(=O)Nc2nncs2)[C@@H]3c2ccccc2)cc1 (racemic) [Example 4]		52.82%	35 nM	
CN(C)C(=O)c1ccc(-c2cc3c(s2)C[C@](C)(C(=O)Nc2nncs2)[C@@H]3c2ccccc2)cc1 (racemic) [Example 5]		43.98%		14 nM
CN(C)C(=O)c1ccc(-c2cc3c(s2)C[C@](C)(C(=O)Nc2nncs2)[C@@H]3c2ccccc2)cc1Cl (racemic) [Example 6]		29.32%		53.1 nM
C[C@]1(C(=O)Nc2nncs2)Cc2sc(-c3ccc(C(=O)N4CCOCC4)cc3)cc2[C@H]1c1ccccc1 (racemic) [Example 7]		44.81%		22.5 nM
C[C@]1(C(=O)Nc2nncs2)Cc2sc(-c3ccc(C(=O)N4CCCC4)cc3)cc2[C@H]1c1ccccc1 (racemic) [Example 8]		42.74%		42.1 nM
CN(C)C(=O)c1ccc(-c2cc3c(s2)C[C@](C)(C(=O)Nc2nncs2)[C@@H]3c2ccccc2)cc1F (racemic) [Example 9]		26.03%		40.2 nM
CCN(C)C(=O)c1ccc(-c2cc3c(s2)C[C@](C)(C(=O)Nc2nncs2)[C@@H]3c2ccccc2)cc1F (racemic) [Example 10]		27.94%		24.2 nM
CCN(C)C(=O)c1ccc(-c2cc3c(s2)CC(C)(C(=O)Nc2nncs2)C3c2ccccc2)cc1Cl (racemic) [Example 11]	1.9 nM			
CC(C)NC(=O)c1nnc(NC(=O)C2(C)Cc3sc(-c4ccc(C(=O)N5CCOCC5)cc4)cc3C2c2ccccc2)s1 (racemic) [Example 22]		55.76%		34.5 nM
Cc1nnc(NC(=O)C2(C)Cc3sc(-c4ccc(C(=O)N5CCOCC5)cc4)cc3C2c2ccccc2)s1 (racemic) [Example 23]		29.00%		452 nM
C[C@]1(C(=O)Nc2nncs2)Cc2sc(-c3ccc(C(=O)N4CCOCC4)cc3)cc2[C@H]1c1cccc(F)c1 (relative stereo) [Example 24, (Cis)-4-(3-fluorophenyl)-5-methyl-2-(4-(morpholine-4-carbonyl)phenyl)-N-(1,3,4-thiadiazol-2-yl)-5,6-dihydro-4H-cyclopenta[b]thiophene-5-carboxamide]		37.80%	23.1 nM	
C[C@]1(C(=O)Nc2nncs2)Cc2sc(Br)cc2[C@H]1c1ccccc1 [Example 2, (4S,5S)-2-Bromo-5-methyl-4-phenyl-N-(1,3,4-thiadiazol-2-yl)-5,6-dihydro-4H-cyclopenta[b]thiophene-5-carboxamide]	5.34 nM			
C[C@@]1(C(=O)Nc2nncs2)Cc2sc(Br)cc2[C@@H]1c1ccccc1 [Example 3, (4R,5R)-2-Bromo-5-methyl-4-phenyl-N-(1,3,4-thiadiazol-2-yl)-5,6-dihydro-4H-cyclopenta[b]thiophene-5-carboxamide]	1.8 nM			
CN(C)C(=O)c1ccc(-c2cc3c(s2)C[C@](C)(C(=O)Nc2nncs2)[C@@H]3c2ccccc2)cc1 [Example 12]		43.11%		29.1 nM
C[C@]1(C(=O)Nc2nncs2)Cc2sc(-c3ccc(C(=O)N4CCOCC4)cc3)cc2[C@H]1c1ccccc1 [Example 13]		50.68%		23.9 nM
CN(C)C(=O)c1ccc(-c2cc3c(s2)C[C@](C)(C(=O)Nc2nncs2)[C@@H]3c2ccccc2)cc1Cl [Example 14]		42.02%		63.7 nM
CCN(C)C(=O)c1ccc(-c2cc3c(s2)C[C@](C)(C(=O)Nc2nncs2)[C@@H]3c2ccccc2)cc1 [Example 15]		53.20%		18.8 nM
C[C@]1(C(=O)Nc2nncs2)Cc2sc(-c3ccc(C(=O)N4CCCC4)cc3)cc2[C@H]1c1ccccc1 [Example 16]		56.78%		290 nM
C[C@@]1(C(=O)Nc2nncs2)Cc2sc(-c3ccc(C(=O)N4CCOCC4)cc3)cc2[C@@H]1c1ccccc1 [Example 18]		29.81%		27.3 nM
CN(C)C(=O)c1ccc(-c2cc3c(s2)C[C@@](C)(C(=O)Nc2nncs2)[C@H]3c2ccccc2)cc1 [Example 19]		38.78%		21.8 nM
C[C@]1(C(=O)Nc2nnc(C(=O)NC3CC3)s2)Cc2sc(-c3ccc(C(=O)N4CCOCC4)cc3)cc2[C@H]1c1ccccc1 [Example 21]		60.04%	22.8 nM	
